Measured values published in patent US6479435B1, “Diaryl ethers and processes for their preparation and herbicidal and desiccant compositions containing them” (ISK Americas Incorporated, priority 1997, dated 2002).

Key:
Assay type in all cases: in vivo
[1] = system: Johnsongrass (Sorghum halepense, SORHA); experiment: Pre-emerge greenhouse herbicide test, phytotoxicity rating; details: 1000 g ai/ha, 14 days after application, rating scale 0-100
From the text: (§1) A standard greenhouse herbicide activity screening system was used to evaluate the herbicidal efficacy and crop safety of these test compounds. Six broadleaf weed species including redroot pigweed (Amaranthus retroflexus, AMARE), velvetleaf (Abutilon theophrasti, ABUTH), sicklepod (Cassia obtusifolia, CASOB), ivyleaf morningglory (Ipomoea hederacea, IPOHE), lambsquarters (Chenopodium album, CHEAL) and common ragweed (Ambrosia artemisiifolia L., AMBEL) were used as test species. Four grass weed species including green foxtail (Setaria viridis, SETVI), barnyardgrass (Echinochloa crusgalli, ECHCG), Johnsongrass (Sorghum halepense, SORHA), and large crabgrass (Digitaria sanguinalis, DIGSA) were also used. In addition, three crop species, field corn (Zea mays L., var. Dekalb 535, CORN), soybean (Glycine max L., var. Pella 86, SOY), and upland rice (Oryza sp., var.Tebonnet, RICE) were included.
(§2) All plants were grown in 10 cm square plastic pots which were filled with a sandy loam soil mix. For preemerge tests, seeds were planted one day prior to application of the test compounds. Immediately after application, test units of the pre-emerge applications were watered at the soil surface to incorporate the test materials. Subsequently, these test units were bottom-watered.
(§3) All test compounds were dissolved in acetone and applied to the test units in a volume of 187 l/ha. Test materials were applied at rates ranging from 125 g ai/ha to 1000 g ai/ha using a track sprayer equipped with a TJ8001E even flow flat fan spray nozzle. Plants were arranged on a shelf so that the top of the canopy (post-emerge) or top of the soil surface (pre-emerge) was 40-45 cm below the nozzle. Pressurized air was used to force the test solution through the nozzle as it was mechanically advanced (via electrically driven chain drive) over the top of all test plants/pots. This application simulates a typical commercial field herbicide application.
(§4) At 14 days after application of the test materials, phytotoxicity ratings were recorded. A rating scale of 0-100 was used as previously described in Research Methods in Weed Science, 2nd edition, B. Truelove, Ed., Southern Weed Science Society, Auburn University, Auburn, Ala., 1977. Briefly, “0” corresponds to no damage and “100” corresponds to complete death of all plants in the test unit. This scale was used both to determine efficacy against weed species and damage to crop species. Herbicide activity data for various compounds of this invention, which are shown by compound number in Tables 1-9, are shown in Tables 13 and 14.

[2] = system: barnyardgrass (Echinochloa crusgalli, ECHCG); experiment: as above; details: 1000 g ai/ha, 14 days after application, rating scale 0-100
From the text: as §1, §2, §3, §4

[3] = system: green foxtail (Setaria viridis, SETVI); experiment: as above; details: 1000 g ai/ha, 14 days after application, rating scale 0-100
From the text: as §1, §2, §3, §4

[4] = system: ivyleaf morningglory (Ipomoea hederacea, IPOHE); experiment: as above; details: 1000 g ai/ha, 14 days after application, rating scale 0-100
From the text: as §1, §2, §3, §4

[5] = system: lambsquarters (Chenopodium album, CHEAL); experiment: as above; details: 1000 g ai/ha, 14 days after application, rating scale 0-100
From the text: as §1, §2, §3, §4

[6] = system: large crabgrass (Digitaria sanguinalis, DIGSA); experiment: as above; details: 1000 g ai/ha, 14 days after application, rating scale 0-100
From the text: as §1, §2, §3, §4

[7] = system: redroot pigweed (Amaranthus retroflexus, AMARE); experiment: as above; details: 1000 g ai/ha, 14 days after application, rating scale 0-100
From the text: as §1, §2, §3, §4

[8] = system: sicklepod (Cassia obtusifolia, CASOB); experiment: as above; details: 1000 g ai/ha, 14 days after application, rating scale 0-100
From the text: as §1, §2, §3, §4

[9] = system: velvetleaf (Abutilon theophrasti, ABUTH); experiment: as above; details: 1000 g ai/ha, 14 days after application, rating scale 0-100
From the text: as §1, §2, §3, §4

[10] = system: field corn (Zea mays L., var. Dekalb 535, CORN); experiment: Pre-emerge greenhouse test, crop damage rating; details: 1000 g ai/ha, 14 days after application, rating scale 0-100
From the text: as §1, §2, §3, §4

[11] = system: upland rice (Oryza sp., var.Tebonnet, RICE); experiment: Pre-emerge greenhouse test, crop damage rating; details: 1000 g ai/ha, 14 days after application, rating scale 0-100
From the text: as §1, §2, §3, §4

[12] = system: soybean (Glycine max L., var. Pella 86, SOY); experiment: Pre-emerge greenhouse test, crop damage rating; details: 1000 g ai/ha, 14 days after application, rating scale 0-100
From the text: as §1, §2, §3, §4

[13] = system: Johnsongrass (Sorghum halepense, SORHA); experiment: Post-emerge greenhouse herbicide test, phytotoxicity rating; details: 1000 g al/ha, 14 days after application
From the text: as §1, §3
(§5) In the post-emerge test, a commercial non-ionic surfactant was also included (0.25% v/v) to enhance wetting of the leaf surfaces Qf target plants at rates ranging from 63 g ai/ha to 1000 g ai/ha. For post-emerge tests, seeds were planted 8-21 days prior to the test to allow emergence and good foliage development prior to application of the test substances. At the time of the post-emerge application, plants of all species were usually at the 2-3 leaf stage of development. Post-emerge test units were always bottom-watered.
as §4

[14] = system: barnyardgrass (Echinochloa crusgalli, ECHCG); experiment: as above; details: 1000 g al/ha, 14 days after application
From the text: as §1, §3, §5, §4

[15] = system: green foxtail (Setaria viridis, SETVI); experiment: as above; details: 1000 g al/ha, 14 days after application
From the text: as §1, §3, §5, §4

[16] = system: ivyleaf morningglory (Ipomoea hederacea, IPOHE); experiment: as above; details: 1000 g al/ha, 14 days after application
From the text: as §1, §3, §5, §4

[17] = system: lambsquarters (Chenopodium album, CHEAL); experiment: as above; details: 1000 g al/ha, 14 days after application
From the text: as §1, §3, §5, §4

[18] = system: large crabgrass (Digitaria sanguinalis, DIGSA); experiment: as above; details: 1000 g al/ha, 14 days after application
From the text: as §1, §3, §5, §4

[19] = system: redroot pigweed (Amaranthus retroflexus, AMARE); experiment: as above; details: 1000 g al/ha, 14 days after application
From the text: as §1, §3, §5, §4

[20] = system: sicklepod (Cassia obtusifolia, CASOB); experiment: as above; details: 1000 g al/ha, 14 days after application
From the text: as §1, §3, §5, §4

[21] = system: velvetleaf (Abutilon theophrasti, ABUTH); experiment: as above; details: 1000 g al/ha, 14 days after application
From the text: as §1, §3, §5, §4

[22] = system: field corn (Zea mays L., var. Dekalb 535, CORN); experiment: Post-emerge greenhouse test, crop damage rating; details: 1000 g al/ha, 14 days after application
From the text: as §1, §3, §5, §4

[23] = system: upland rice (Oryza sp., var.Tebonnet, RICE); experiment: Post-emerge greenhouse test, crop damage rating; details: 1000 g al/ha, 14 days after application
From the text: as §1, §3, §5, §4

[24] = system: soybean (Glycine max L., var. Pella 86, SOY); experiment: Post-emerge greenhouse test, crop damage rating; details: 1000 g al/ha, 14 days after application
From the text: as §1, §3, §5, §4

| SMILES | phytotoxicity rating SORHA [1] | phytotoxicity rating ECHCG [2] | phytotoxicity rating SETVI [3] | phytotoxicity rating IPOHE [4] | phytotoxicity rating CHEAL [5] | phytotoxicity rating DIGSA [6] | phytotoxicity rating AMARE [7] | phytotoxicity rating CASOB [8] | phytotoxicity rating ABUTH [9] | crop damage rating CORN [10] | crop damage rating RICE [11] | crop damage rating SOY [12] | SORHA phytotoxicity rating (0-100) [13] | ECHCG phytotoxicity rating (0-100) [14] | SETVI phytotoxicity rating (0-100) [15] | IPOHE phytotoxicity rating (0-100) [16] | CHEAL phytotoxicity rating (0-100) [17] | DIGSA phytotoxicity rating (0-100) [18] | AMARE phytotoxicity rating (0-100) [19] | CASOB phytotoxicity rating (0-100) [20] | also measured |
| --- | --- | --- | --- | --- | --- | --- | --- | --- | --- | --- | --- | --- | --- | --- | --- | --- | --- | --- | --- | --- | --- |
| O=c1cc2n(c(=O)n1-c1cc(Oc3ncccc3[N+](=O)[O-])c(Cl)cc1F)CCC2 [Compound 5-8] | 95 | 85 | 95 | 80 | 100 | 100 | 100 | 0 | 100 | 15 | 50 | 50 | 0 | 0 | 10 | 80 | 60 | 0 | 40 | 30 | ABUTH phytotoxicity rating (0-100) [21]: 100; CORN crop damage rating (0-100) [22]: 0; RICE crop damage rating (0-100) [23]: 0; SOY crop damage rating (0-100) [24]: 20 |
| O=c1cc2n(c(=O)n1-c1cc(Oc3ccc([N+](=O)[O-])cc3)c(Cl)cc1F)CCC2 [Compound 5-2] | 80 | 50 | 90 | 50 | 100 | 70 | 40 | 0 | 100 | 0 | 50 | 10 | 0 | 0 | 10 | 40 | 40 | 0 | 20 | 0 | ABUTH phytotoxicity rating (0-100) [21]: 70; CORN crop damage rating (0-100) [22]: 0; RICE crop damage rating (0-100) [23]: 10; SOY crop damage rating (0-100) [24]: 15 |
